Reference: patent publication US9073916B2, “Prodrug forms of kinase inhibitors and their use in therapy” (AUCKLAND UNISERVICES LIMITED, priority 2009, dated 2015)
“And” between values parts separate entries of the source, which are not always exact repeats. Equal entries are not always repeated. Where two headings read alike, the source gives them in different places.

What was measured:
[1] = tested on: Erk1/2; conditions: EGF-stimulated A431 cells
[2] = in vivo; conditions: mouse, plasma, ip, 42 umol/kg
[3] = biological target: T1, erbB1 (Homo sapiens, UniProt P00533); experiment: Inhibition of erbB1 autophosphorylation in EGF-stimulated intact A431 cells (Western blot)
T1 sequence (P00533 25-1210): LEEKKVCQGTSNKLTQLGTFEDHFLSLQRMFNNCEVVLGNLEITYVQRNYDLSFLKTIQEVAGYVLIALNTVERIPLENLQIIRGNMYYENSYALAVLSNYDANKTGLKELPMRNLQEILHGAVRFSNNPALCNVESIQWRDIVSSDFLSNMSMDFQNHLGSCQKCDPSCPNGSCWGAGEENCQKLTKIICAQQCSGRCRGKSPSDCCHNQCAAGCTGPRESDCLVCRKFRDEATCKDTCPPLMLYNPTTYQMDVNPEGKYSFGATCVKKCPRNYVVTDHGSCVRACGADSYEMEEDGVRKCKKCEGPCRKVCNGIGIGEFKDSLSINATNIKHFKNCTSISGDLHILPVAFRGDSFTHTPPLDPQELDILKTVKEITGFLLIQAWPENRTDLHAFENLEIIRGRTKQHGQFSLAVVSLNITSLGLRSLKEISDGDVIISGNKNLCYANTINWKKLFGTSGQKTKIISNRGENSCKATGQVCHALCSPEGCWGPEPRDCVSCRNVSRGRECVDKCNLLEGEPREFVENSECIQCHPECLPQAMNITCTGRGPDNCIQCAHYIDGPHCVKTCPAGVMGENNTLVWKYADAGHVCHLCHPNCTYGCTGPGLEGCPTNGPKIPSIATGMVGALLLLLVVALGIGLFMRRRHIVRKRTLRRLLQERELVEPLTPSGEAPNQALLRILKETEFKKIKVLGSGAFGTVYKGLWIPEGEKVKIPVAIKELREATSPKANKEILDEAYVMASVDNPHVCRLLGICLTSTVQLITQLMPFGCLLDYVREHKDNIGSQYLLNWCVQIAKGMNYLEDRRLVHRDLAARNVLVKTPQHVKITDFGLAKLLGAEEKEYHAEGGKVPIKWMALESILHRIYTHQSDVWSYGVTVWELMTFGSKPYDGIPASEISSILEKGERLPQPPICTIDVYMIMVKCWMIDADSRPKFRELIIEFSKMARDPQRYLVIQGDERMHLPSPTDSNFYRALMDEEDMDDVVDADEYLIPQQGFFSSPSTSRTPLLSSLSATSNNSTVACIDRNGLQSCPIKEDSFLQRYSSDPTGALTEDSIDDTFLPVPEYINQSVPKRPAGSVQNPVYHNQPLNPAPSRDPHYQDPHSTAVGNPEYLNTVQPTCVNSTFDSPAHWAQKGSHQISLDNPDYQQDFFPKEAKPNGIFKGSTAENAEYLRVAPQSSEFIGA

[4] = Plasma and A431 tumour pharmacokinetics of compounds 11 and 20; conditions: NIHIII, mouse, 75 umol/kg
Experimental: A small piece (˜100 mg) of tissue was placed in biopulveriser well (previously cooled in liquid nitrogen) and reduced to fine powder with a 2-3 strong blows to the stainless steel pestle. The frozen powder was collected in pre-weighed microcentrifuge tube (kept on dry ice). […] The microcentrifuge tubes were spun at 13,000 rpm for 10 min to precipitate the cell debris and proteins. […] The analytes were eluted using a gradient of 0.01% formic acid in acetonitrile (80%)-water (20%) mixture and 0.01% formic acid in water (100%) on Zorbax SB 018, rapid resolution HT 3.0×50 mm, 1.8 micron (Agilent) HPLC column with a flow rate of 0.6 ml/min.

[5] = tested on: SKBR3 cells; experiment: Cellular growth inhibition (sulforhodamine B); assay type: cell-based, Human; conditions: Table 3
Experimental: (§3) Human A431, BT474, SKBR3, SKOV3, SW620, H1975 and HT29 carcinoma cells in log phase exponential growth in alpha minimal essential media (αMEM) containing 5% fetal bovine serum (FBS), were harvested by trypsinisation (1× trypsin/EDTA, Gibco Brl), counted, and seeded into 96 well plates (Nunc) at cell densities ranging from 800-1500 cells/well. Half of the cell samples were seeded into plates that were pre-equilibrated and held in an anoxic environment (90% N2, 5% H2, 5% CO2, 37° Q Anaerobic chamber, Coy Laboratory Products). […] At the end of this period the anoxic plates were recovered from the anaerobic camber and held under normoxia in a standard CO2 incubator (37° C.) for 20 hours. All plates were washed free of compound and cells were allowed to proliferate for a further 4 days in αMEM containing 5% FBS+antibiotics. Cells were fixed in trichloroacteic acid (30 min), washed and stained with sulforhodamine B (SRB, 60 min) prior to washing in acidified water. SRB was solubilised and absorption read at 450 nm to calculate cell densities. Inhibition of proliferation was calculated relative to untreated control wells.

[6] = tested on: SW620 cells; experiment: Cellular growth inhibition (sulforhodamine B); assay type: cell-based, Human; conditions: Table 3
[7] = tested on: SKOV3 xenografts; experiment: In vivo efficacy in SKOV3 xenografts; design: species or system mice
Experimental: (§1) Specific pathogen-free homozygous female NIH-III nude mice (Charles River Laboratories, Wilmington, Mass.) were inoculated subcutaneously with a single cell suspension of SKOV3 cells (1×10^7 cells/100 μL; right flank). When SKOV3 tumour xenografts were established (typically 50-65 days) mice were randomized to treatment groups. All compounds were prepared in lactate buffer (pH4). Mice were dosed by intraperitoneal injection (0.01-0.03 ml/g) using the stated schedules and dose levels. Tumour size and body weights were measured at regular intervals. Tumour volume was calculated as π (length×width^2)/6. […] Differences in RTV^4 were tested for statistical difference by Mann Whitney U test using SigmaStat v3.5.
as §1, with “Compounds 42 and 161” for “All compounds”

[8] = biological target: T2, erbB2 (Homo sapiens, UniProt P04626); experiment: Isolated enzyme inhibition (Invitrogen Z′-LYTE kinase assay); assay type: biochemical; conditions: 10 μM ATP, duplicate
T2 sequence (P04626 23-1255): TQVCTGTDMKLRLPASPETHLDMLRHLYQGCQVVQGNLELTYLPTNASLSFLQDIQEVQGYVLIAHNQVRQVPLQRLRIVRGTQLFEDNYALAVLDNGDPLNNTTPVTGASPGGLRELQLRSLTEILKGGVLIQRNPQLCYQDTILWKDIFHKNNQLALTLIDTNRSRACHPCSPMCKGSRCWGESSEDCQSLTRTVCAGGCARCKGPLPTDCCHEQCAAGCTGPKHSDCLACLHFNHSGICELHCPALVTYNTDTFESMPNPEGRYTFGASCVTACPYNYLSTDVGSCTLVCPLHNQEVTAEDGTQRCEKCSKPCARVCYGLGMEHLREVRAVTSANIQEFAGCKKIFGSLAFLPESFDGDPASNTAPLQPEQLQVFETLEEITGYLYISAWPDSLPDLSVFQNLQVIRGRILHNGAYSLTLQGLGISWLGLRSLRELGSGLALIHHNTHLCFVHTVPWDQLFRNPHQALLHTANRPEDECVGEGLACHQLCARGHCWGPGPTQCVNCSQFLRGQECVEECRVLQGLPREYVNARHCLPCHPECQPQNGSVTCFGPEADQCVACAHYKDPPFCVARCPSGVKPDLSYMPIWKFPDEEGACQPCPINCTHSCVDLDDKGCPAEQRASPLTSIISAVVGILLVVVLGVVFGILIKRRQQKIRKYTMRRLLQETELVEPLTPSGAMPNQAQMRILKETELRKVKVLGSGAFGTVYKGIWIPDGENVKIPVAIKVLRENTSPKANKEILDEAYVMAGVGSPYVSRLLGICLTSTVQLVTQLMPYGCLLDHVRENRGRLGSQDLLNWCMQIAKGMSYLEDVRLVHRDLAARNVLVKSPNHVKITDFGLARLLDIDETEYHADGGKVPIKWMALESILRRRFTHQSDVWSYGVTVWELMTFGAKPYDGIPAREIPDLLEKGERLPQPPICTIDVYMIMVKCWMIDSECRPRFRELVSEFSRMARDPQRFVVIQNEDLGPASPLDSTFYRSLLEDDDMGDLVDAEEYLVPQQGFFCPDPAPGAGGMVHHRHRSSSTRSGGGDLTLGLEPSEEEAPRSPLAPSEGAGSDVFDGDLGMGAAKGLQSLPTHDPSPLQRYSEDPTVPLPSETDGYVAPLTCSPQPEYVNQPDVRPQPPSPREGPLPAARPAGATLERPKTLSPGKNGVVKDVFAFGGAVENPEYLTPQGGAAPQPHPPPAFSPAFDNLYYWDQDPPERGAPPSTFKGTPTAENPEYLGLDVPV
Experimental: (§2) The compounds of Table 1 were tested for their ability to inhibit erbB1, erbB1^T790M, erbB2 and erbB4 in an isolated enzyme assay. This assay utilises synthetic FRET-capable peptide substrates. Phosphorylation of these substrates protects them from cleavage by a development reagent, leaving their FRET-capabilities intact. […] As a further consideration, for compounds capable of irreversible inhibition of an enzyme, the IC50 reflects both reversible and irreversible binding to the enzyme.

[9] = biological target: erbB4 (Homo sapiens, UniProt Q15303); experiment: as above; assay type: biochemical; conditions: 10 μM ATP, duplicate
erbB4, sequence (Q15303 26-1308): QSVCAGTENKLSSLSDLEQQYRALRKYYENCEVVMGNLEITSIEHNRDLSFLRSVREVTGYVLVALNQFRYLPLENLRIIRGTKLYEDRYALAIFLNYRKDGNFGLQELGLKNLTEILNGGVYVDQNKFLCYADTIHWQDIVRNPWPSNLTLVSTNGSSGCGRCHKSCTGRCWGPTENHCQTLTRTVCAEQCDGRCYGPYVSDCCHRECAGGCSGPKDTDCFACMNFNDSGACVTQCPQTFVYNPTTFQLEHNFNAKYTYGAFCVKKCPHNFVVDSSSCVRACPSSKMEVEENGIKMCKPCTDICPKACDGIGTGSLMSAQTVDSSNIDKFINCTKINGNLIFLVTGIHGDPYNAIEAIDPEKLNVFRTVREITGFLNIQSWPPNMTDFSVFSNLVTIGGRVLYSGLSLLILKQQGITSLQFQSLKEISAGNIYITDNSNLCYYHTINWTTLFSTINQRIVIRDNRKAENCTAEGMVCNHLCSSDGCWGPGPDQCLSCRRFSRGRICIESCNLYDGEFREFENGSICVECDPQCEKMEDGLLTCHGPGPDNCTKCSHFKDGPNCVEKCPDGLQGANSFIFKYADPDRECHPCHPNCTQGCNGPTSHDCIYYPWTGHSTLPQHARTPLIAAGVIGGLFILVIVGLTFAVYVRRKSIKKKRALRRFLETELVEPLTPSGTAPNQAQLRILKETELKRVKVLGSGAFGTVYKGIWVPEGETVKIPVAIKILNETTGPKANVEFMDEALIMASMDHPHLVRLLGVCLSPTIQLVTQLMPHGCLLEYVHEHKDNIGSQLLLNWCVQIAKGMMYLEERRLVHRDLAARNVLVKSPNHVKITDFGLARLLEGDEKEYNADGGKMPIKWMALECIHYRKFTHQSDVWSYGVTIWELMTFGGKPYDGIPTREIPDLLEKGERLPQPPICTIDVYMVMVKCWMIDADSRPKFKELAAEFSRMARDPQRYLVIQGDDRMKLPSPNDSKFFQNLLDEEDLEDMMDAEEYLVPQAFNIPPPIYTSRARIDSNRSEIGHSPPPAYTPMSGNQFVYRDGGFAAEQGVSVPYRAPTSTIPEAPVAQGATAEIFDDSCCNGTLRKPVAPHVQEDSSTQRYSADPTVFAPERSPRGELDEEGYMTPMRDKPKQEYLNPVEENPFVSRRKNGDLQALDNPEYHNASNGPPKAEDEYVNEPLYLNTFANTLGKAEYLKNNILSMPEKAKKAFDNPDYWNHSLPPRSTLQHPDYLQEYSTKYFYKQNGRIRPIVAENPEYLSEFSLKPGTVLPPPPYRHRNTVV
Experimental: as §2

[10] = biological target: T1, erbB1; experiment: Cellular erbB1 inhibition: irreversibility wash-out assay in A431 cells
[11] = tested on: A431 cells; experiment: Cellular growth inhibition (sulforhodamine B)
Experimental: as §3
(§4) Human A431, H1975 and SKOV3 carcinoma cells in log phase exponential growth in alpha minimal essential media (αMEM) containing 5% fetal bovine serum (FBS), were harvested by trypsinisation (1× trypsin/EDTA, Gibco Brl), counted, and seeded into 96 well plates (Nunc) at cell densities ranging from 800-1500 cells/well. Half of the cell samples were seeded into plates that were pre-equilibrated and held in an anoxic environment (90% N2, 5% H2, 5% CO2, 37° C.; Anaerobic chamber, Coy Laboratory Products). […] At the end of this period the anoxic plates were recovered from the anaerobic camber and held under normoxia in a standard CO2 incubator (37° C.) for 20 hours. All plates were washed free of compound and cells were allowed to proliferate for a further 4 days in αMEM containing 5% FBS+antibiotics. Cells were fixed in trichloroacteic acid (30 min), washed and stained with sulforhodamine B (SRB, 60 min) prior to washing in acidified water. SRB was solubilised and absorption read at 450 nm to calculate cell densities. Inhibition of proliferation was calculated relative to untreated control wells.

[12] = tested on: A431 xenografts; experiment: In vivo efficacy in A431 xenografts; conditions: A431 xenografts; for tumour growth inhibition (TGI): q4dx3 at MTD, IP in lactate buffer
Experimental: as §1, with “CD-1” for “NIH-III”, “A431” for “SKOV3”, “(5×10^6” for “(1×10^7”, “[…];” for “μL;”, “6-10” for “50-65”

[13] = in vivo; conditions: female, CD-1 nude, mouse, ip
[14] = Steady state radiolytic reduction by the CO2.− radical with HPLC-MS; assay type: physicochemical; conditions: for Effector release/Prodrug loss: 0.95 reducing equivalents; for Detection of MNA (methyl nitroaromatic) / release of effector following 1-electron reduction: HPLC-MS; for % Loss of prodrug / % Release of effector: HPLC-MS at 0.95 reducing equivalents; for release of effector following 1-electron reduction: steady state radiolysis
[15] = biological target: erbB1^T790M (Homo sapiens, UniProt P00533, T790M); experiment: Isolated enzyme inhibition (Invitrogen Z′-LYTE kinase assay); assay type: biochemical; conditions: 10 μM ATP, duplicate
erbB1^T790M, sequence (P00533 25-1210 T790M): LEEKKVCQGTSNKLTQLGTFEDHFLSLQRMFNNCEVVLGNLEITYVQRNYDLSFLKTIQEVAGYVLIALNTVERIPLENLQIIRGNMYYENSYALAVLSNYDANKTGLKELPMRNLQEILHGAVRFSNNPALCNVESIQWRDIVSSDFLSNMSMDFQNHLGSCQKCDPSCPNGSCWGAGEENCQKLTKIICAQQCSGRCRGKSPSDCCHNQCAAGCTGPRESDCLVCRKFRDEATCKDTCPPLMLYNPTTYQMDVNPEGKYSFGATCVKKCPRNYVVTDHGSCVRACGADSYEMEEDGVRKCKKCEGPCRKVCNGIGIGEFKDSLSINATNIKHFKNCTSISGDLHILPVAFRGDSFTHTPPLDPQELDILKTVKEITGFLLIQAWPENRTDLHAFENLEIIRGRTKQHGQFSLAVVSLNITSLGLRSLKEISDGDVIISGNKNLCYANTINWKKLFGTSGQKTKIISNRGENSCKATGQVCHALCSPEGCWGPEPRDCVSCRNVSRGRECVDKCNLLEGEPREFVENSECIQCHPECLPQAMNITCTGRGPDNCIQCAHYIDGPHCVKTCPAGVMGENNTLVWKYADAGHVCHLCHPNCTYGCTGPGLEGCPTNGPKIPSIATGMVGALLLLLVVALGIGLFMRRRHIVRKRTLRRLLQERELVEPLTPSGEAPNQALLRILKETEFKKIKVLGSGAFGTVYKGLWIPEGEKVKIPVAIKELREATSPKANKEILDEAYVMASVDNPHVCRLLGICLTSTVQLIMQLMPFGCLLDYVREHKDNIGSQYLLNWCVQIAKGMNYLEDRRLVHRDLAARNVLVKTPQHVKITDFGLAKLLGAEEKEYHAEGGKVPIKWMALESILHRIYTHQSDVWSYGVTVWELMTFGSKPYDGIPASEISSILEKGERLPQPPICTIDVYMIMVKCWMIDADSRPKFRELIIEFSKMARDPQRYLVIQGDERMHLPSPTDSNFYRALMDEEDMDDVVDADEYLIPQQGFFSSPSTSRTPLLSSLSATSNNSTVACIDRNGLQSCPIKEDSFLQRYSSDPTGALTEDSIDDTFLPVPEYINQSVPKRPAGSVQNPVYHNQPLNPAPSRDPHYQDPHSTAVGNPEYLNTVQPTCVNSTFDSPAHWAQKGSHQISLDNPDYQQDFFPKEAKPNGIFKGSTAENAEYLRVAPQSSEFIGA

[16] = biological target: T1, erbB1; experiment: as above; assay type: biochemical; conditions: 10 μM ATP, duplicate
[17] = Pulse radiolysis (E(1) and fragmentation rate); assay type: physicochemical; conditions: for E (1)/V (one-electron reduction potential): determined against methylviologen
[18] = biological target: T1, erbB1; experiment: Cellular erbB1 inhibition under oxic and hypoxic conditions in A431 cells; assay type: cell-based; conditions: 1 μM, 4 hour exposure oxic or hypoxic, washed, EGF stimulated
Experimental: Human A431 epidermoid carcinoma cells were seeded at 400,000 cells/well in a 6 well plate in alpha minimal essential media (αMEM) containing 10% fetal bovine serum, 10 mM D-Glucose and 0.2 mM 2′-deoxycytidine. A431 cells were allowed to attach for 90 minutes under oxic or anoxic conditions, then exposed to test compounds at a concentration of 1 uM for a further 4 hours under oxic or anoxic conditions. The cells were then washed free of test compounds three times using serum free media and then returned to the incubator under oxic conditions overnight. The cells were then stimulated with 100 ng/mL EGF for 15 minutes before the medium was aspirated and the cells were washed with ice-cold PBS.

[19] = Plasma and A431 tumour pharmacokinetics of compounds 42 and 161
[20] = tested on: SKOV3 cells; experiment: Cellular growth inhibition (sulforhodamine B); assay type: cell-based, Human; conditions: Table 9; for IC50: Homo sapiens, SK-OV-3
Experimental: as §4

[21] = tested on: H1975 cells; experiment: Cellular growth inhibition (sulforhodamine B); assay type: cell-based, Human; conditions: Table 9; for IC50: Homo sapiens, NCI-H1975
Experimental: as §3, §4
They were then washed free of drug and incubated for a further 4 days, before being stained for cell survival with sulforhodamine B.

[22] = biological target: T2, erbB2; experiment: Inhibition of basal phospho-erbB2 in SKOV3 cells (Western blot); assay type: cell-based; design: endogenous in cells; host or cells: SKOV3 human ovarian carcinoma cells; conditions: SKOV3 cells; read-out: cellular erbB2 IC50
Excerpt: Values are plotted using SigmaPlot 10.

[23] = tested on: H1975 xenografts; experiment: In vivo efficacy in H1975 xenografts; design: species or system mice; conditions: H1975 xenografts, equitoxic dose 133 (42) and 42.2 (161) μmol/kg/dose, q3dx4, IP
Experimental: as §1, with “H1975” for “SKOV3”, “(5×10^6” for “(1×10^7”, “8-12” for “50-65”, “For growth delay experiments mice were randomized to treatment and tumor volume [π(length×width^2)/6]” for “Tumour size”, “weight” for “weights”, “daily following treatment.” for “at regular intervals. Tumour volume was calculated as π (length×width^2)/6.”

[24] = Homo sapiens, SK-BR-3, 24 hour exposure entirely oxic, read-out: Cellular Growth Inhibition IC50 SKBR3 Oxic
[25] = Homo sapiens, SK-BR-3, first 4 hours anoxic, read-out: Cellular Growth Inhibition IC50 SKBR3 Anoxic
[26] = Homo sapiens, SW-620, 24 hour exposure entirely oxic, read-out: Cellular Growth Inhibition IC50 SW620 Oxic
[27] = Homo sapiens, SW-620, first 4 hours anoxic, read-out: Cellular Growth Inhibition IC50 SW620 Anoxic
[28] = Homo sapiens, A-431, 24 h, read-out: Cellular Growth Inhibition IC50 A431 Oxic
[29] = Homo sapiens, A-431, read-out: Cellular Growth Inhibition IC50 A431 Anoxic

| SMILES | IC50 [5, 24] | IC50 [5, 25] | SKBR3 HCR [5] | IC50 [6, 26] | IC50 [6, 27] | SW620 HCR [6] | IC50 [8] | IC50 [9] | IC50 [11, 28] | IC50 [11, 29] | Effector release/Prodrug loss [14] | Detection of MNA (methyl nitroaromatic) [14] | % Loss of prodrug [14] | % Release of effector [14] | release of effector following 1-electron reduction [14] | SKBR3 Deact. [5] | SW620 Deact. [6] | IC50 [15] | tumour growth inhibition (TGI) [12] | IC50 [16] | other results |
| --- | --- | --- | --- | --- | --- | --- | --- | --- | --- | --- | --- | --- | --- | --- | --- | --- | --- | --- | --- | --- | --- |
| CN(C)C/C=C/C(=O)Nc1ccc2ncnc(Nc3cccc(Br)c3)c2c1 [Compound 11, (2E)-N-[4-(3-bromoanilino)-6-quinazolinyl]-4-(dimethylamino)-2-butenamide, reference compound] | 81 nM | 141 nM | 0.6 fold | 3430 nM | 2890 nM | 1.2 fold | 8 nM and 7.7 nM | 2.7 nM | 40 nM | 40 nM |  |  |  |  |  |  |  |  |  |  | inhibition of cellular Erk1/2 phosphorylation [1]: potent inhibitor; AUC(0-t) [2]: 12 µM·h; inhibition of cellular HER1 phosphorylation ([3]; EGF-stimulated A431 cells): potent inhibitor; half-life ([4]; A431 tumour, intraperitoneal): 9 h; AUC ([4]; plasma, ip): 18 µM·h; deaths ([7]; q3dx6, 133 (20) and 56 (11) umol/kg/dose): 1/7; erbB1 autophosphorylation, cells not washed free of drug [10]: completely inhibited; deaths ([12]; q4dx6, 63% of single dose MTD): 2/12; MTD [13]: 100 µmol/kg |
| Cn1c(C[N+](C)(C)C/C=C/C(=O)Nc2ccc3ncnc(Nc4cccc(Br)c4)c3c2)ccc1[N+](=O)[O-].[Br-] [Compound 19, (2E)-4-{[4-(3-bromoanilino)-6-quinazolinyl]amino}-N,N-dimethyl-N-[(1-methyl-5-nitro-1H-pyrrol-2-yl)methyl]-4-oxo-2-buten-1-ammonium bromide] |  |  |  |  |  | 5.6 fold | 113 nM | 61 nM |  |  | 0.73 | No | 63% | 46% | released effector (compound 11) detected | 78 fold | 46 fold | 451 nM | 120% | 0.4 nM | IC50 ([3]; read-out: Cellular Enzyme Inhibition IC50 erbB1, Table 2, intact A431 cells, EGF-stimulated, average of two determinations): 962 nM; IC50 ([5]; 24 hour exposure entirely oxic, read-out: Cellular Growth Inhibition IC50 SKBR3 Oxic): 6330 nM; IC50 ([5]; first 4 hours anoxic, read-out: Cellular Growth Inhibition IC50 SKBR3 Anoxic): 483 nM; IC50 ([6]; 24 hour exposure entirely oxic, read-out: Cellular Growth Inhibition IC50 SW620 Oxic): 156000 nM; IC50 ([6]; first 4 hours anoxic, read-out: Cellular Growth Inhibition IC50 SW620 Anoxic): 28000 nM; IC50 ([11]; read-out: Cellular Growth Inhibition IC50 A431 Anoxic, Table 3, first 4 hours of 24 hour exposure anoxic): 201 nM; IC50 ([11]; read-out: Cellular Growth Inhibition IC50 A431 Oxic, Table 3, 24 hour exposure entirely oxic): 2640 nM; kfrag. (fragmentation rate constant upon 1-electron reduction) ([17]; benzyl-type radical formation): 90 ± 10 s⁻¹; E (1)/V (one-electron reduction potential) [17]: −0.493 V |
| Cn1cc([N+](=O)[O-])nc1C[N+](C)(C)C/C=C/C(=O)Nc1ccc2ncnc(Nc3cccc(Br)c3)c2c1 [Compound 21, (2E)-4-{[4-(3-bromoanilino)-6-quinazolinyl]amino}-N,N-dimethyl-N-[(1-methyl-4-nitro-1H-imidazol-2-yl)methyl]-4-oxo-2-buten-1-ammonium bromide] | 26900 nM | 30000 nM | 0.9 fold | 423000 nM | 365000 nM | 1.2 fold | 128 nM | 76 nM | 11000 nM | 13700 nM | 0.30 | No | 33% | 10% | not observed | 332 fold | 123 fold | 531 nM | 10% | 0.53 nM | IC50 [3]: 1190 nM; Deact. (fold reduction in cellular erbB1 inhibition relative to the parent kinase inhibitor) ([3]; Table 2, A431 cells): 130 fold; A431 Deact. (fold reduction in oxic growth inhibition relative to parent kinase inhibitor) ([11]; Table 3): 277 fold; A431 HCR (Hypoxic Cytotoxicity Ratio) ([11]; Table 3): 1.3 fold; hypoxia-selective inhibition of p-erbB1 [18]: no apparent hypoxia-selective inhibition; E (1)/V (one-electron reduction potential) [17]: −0.468 V |
| CN(C)C/C=C/C(=O)Nc1cc2c(Nc3ccc(F)c(Br)c3)ncnc2cn1 [Compound 161, (2E)-N-[4-(3-bromo-4-fluoroanilino)pyrido[3,4-d]pyrimidin-6-yl]-4-(dimethylamino)-2-butenamide] |  |  |  |  |  |  |  |  | 30 nM |  |  |  |  |  |  |  |  |  |  |  | IC50 [3]: 5 nM; AUC ([19]; female, NIH-III, mouse, plasma, ip, 31.6 umol/kg): 8 µM·h; tumour AUC0-inf ([19]; inhibitor 161 dosed directly at 31.6 umol/kg ip, A431 tumour): 49 µmol·h/kg; IC50 ([20]; 24 hour exposure oxic, read-out: Cellular Growth Inhibition IC50 SKOV3 Oxic): 840 nM; IC50 ([20]; first 4 hours anoxic, read-out: Cellular Growth Inhibition IC50 SKOV3 Anoxic): 1310 nM; SKOV3 HCR [20]: 0.8 fold; deaths ([7]; q3dx9, 100 (42) and 31.6 (161) μmol/kg/dose): 1/7; IC50 ([21]; 24 hour exposure oxic, read-out: Cellular Growth Inhibition IC50 H1975 Oxic): 1260 nM; IC50 ([21]; first 4 hours anoxic, read-out: Cellular Growth Inhibition IC50 H1975 Anoxic): 1400 nM; H1975 HCR [21]: 0.9 fold; IC50 [22]: 6 nM; erbB1 autophosphorylation, cells not washed free of drug ([10]; 1 μM, 1 hour exposure, then EGF stimulation): completely inhibited; IC50 ([11]; Homo sapiens, A-431, 4 h, read-out: Cellular Growth Inhibition IC50 A431 Anoxic): 28 nM; A431 HCR ([11]; Table 9): 1.6 fold; tumour growth inhibition (TGI) [23]: 100% |
